# Assay results as given in US20050182044A1, “Combinatorial therapy with an acetylcholinesterase inhibitor and (3aR)-1,3a,8-trimethyl-1,2,3,3a,8,8a-hexahydropyrrolo[2,3,-b]indol-5-yl phenylcarbamate” (priority 2004, published 2005).
# Entries after “also recorded” stand apart in the source; their conditions may differ. Like-named read-outs stand apart in the source and are kept apart here.
# Tests used:
# [1] = biological target: T1, acetylcholinesterase (AChE) (Homo sapiens, UniProt P22303); test: IC50 for AChE inhibition, phenserine enantiomers; assay type: biochemical
# T1 construct: host or cells: human erythrocytes
# Description: (§1) For example, the pharmacological activity of each compound may be expressed as the IC50, which is defined as the concentration (e.g., in nanomoles) required to inhibit 50% of the enzyme activity of ACHE or produce a 50% reduction in β-APP or Aβ. The AChE inhibition IC50 values may be determined by measuring the enzyme activity at each concentration and expressed as a percentage of the activity determined in the absence of each compound. This then is transformed into a logit format, where logit=In (% activity/[100−% activity]), and was plotted as a finction of the log concentration of the compound (Id.). IC50 values (i.e., logit=In (50/[100−50 =0) were determined only from correlation coefficients (r^2) of […] and when more than 50% inhibition was achieved from duplicate samples.
# β-APP [2] = test: β-APP levels in neuroblastoma cell culture (Western blot, mAb 22C11); assay type: cell-based, human; details: for β-APP levels, intracellular and extracellular: SK-N-SH cells, 5 or 50 μM, up to 16 hours, vs control, no cellular toxicity (LDH), FIG. 4/5; for intracellular β-APP level: donepezil treatment, FIG. 2
# Protocol: Acad. Sci. USA 98 (13):7605-7610. The methodology of Shaw et al. for carrying out these tests is summarized as follows:
# (§2) SK—N—SH neuroblastoma cells were cultured on 60 mm dishes at a concentration of 3×10^6 cells, and SH—SY-5Y neuroblastoma cells were plated in 100 mm dishes at a concentration of 3×10^5 cells. The cells were allowed to grow in complete media (10% FBS, 2 mM glutamine in DMEM) for 3 to 4 days until they reached 70% confluence.
# Lysate preparation: At each time point, the spent medium was collected and stored at −70 C for later analysis of secretory β-APP levels. Cell lysates were prepared as reported previously (Lahiri et al. (1997) Effects of Cholinesterase Inhibitors on the Secretion of Beta-Amyloid Precursor Protein in Cell Cultures, Ann. N.Y Acad. Sci. 826:416-421; and Lahiri et al. (1998) The Secretion of Amyloid Beta-Peptides is Inhibited in the Tacrine-Treated Human Neuroblastoma Cells, Mol. Brain Res. 62:131-140). Protein levels of the supernatant were analyzed by the Bradford protein assay (BioRad, Mellville, N.Y.).
# Western Blot: Fifteen μg of protein from each sample was loaded onto a 10% NuPAGE Bis-Tris gel in 1× NuPAGE MOPS SDS running buffer (NOVEX, San Diego, Calif.) and the proteins separated at 200 V for 45 minutes. The gels were then transferred onto nitrocellulose at 25 V for 1.5 hours. Non-specific binding was blocked, and each blot was probed for 2 hours with either 22C11 anti-β-APP N-terminal antibody (2.5 μg/mL, Boehringer Mannheim, Indianapolis, Ind.) or anti-activated ERK antibody (25 ng/mL, Promega, Madison, Wis.). Anti-mouse IgG- or anti-rabbit IgG, conjugated to horse radish peroxidase, were used as secondary antibodies. Equivalent loading of samples was determined by Ponceau S staining (Sigma, St. Louis, Mo.). Densimetric quantification of the chemiluminescence of blots was undertaken by using a […] and NIH-IMAGE (version 4.1).
# Aβ [3] = test: Aβ levels in neuroblastoma cell culture (ELISA); assay type: cell-based, human; details: for secreted levels of Aβ: SK-N-SH cells, 5 or 50 μM, up to 16 hours, vs control, no cellular toxicity (LDH), FIG. 4/5
# Protocol: as §2
# Total Aβ Assay: Total Aβ peptide levels in SH—SY-5Y and SK—N—SH cultured samples were assayed by a sensitive ELISA assay (Suzuki et al., (1994) An Increased Percentage of Long Amyloid Beta Protein Secreted by Familial Amyloid Beta Protein Precursor (beta APP717) Mutants, Science 264:1336-1340). For total Aβ peptide measurements, a sandwich immunoassay with rabbit polyclonal antibody to residues 1-40 of Aβ or a monoclonal antibody to residues 17-25 of Aβ as a capture antibody for all species of Aβ peptide, Aβ1-40 and Aβ1-42, was used, and the values were expressed as the mean of six independent assays.
# [4] = i.p. administration to rodents, cholinergic over-stimulation symptoms
# Description: This is a classical central (i.e., brain) cholinergic over-stimulation (overdrive) effect.
# Aβ [5] = test: Preclinical studies, Aβ levels in nerve cells; assay type: cell-based, rat; details: for reduction of Aβ levels in nerve cells: versus controls
# β-APP [6] = test: β-APP production on coadministration of (+)-phenserine with an AChEI (Example III); assay type: cell-based
# Description: The compounds may be tested by the procedure utilized in Example II.
# [7] = Randomized, double-blind, placebo-controlled 12-week study in mild to moderate Alzheimer's disease; assay type: in vivo, human; details: oral, 12 weeks
# [8] = biological target: T1, acetylcholinesterase (AChE); details: compared with the negative enantiomer; Pei, Greig et al. (1995); cited from earlier work
# AChE [9] = biological target: T2, AChE (Homo sapiens, UniProt P22303); test: biochemical; details: IC50 Value AChE, Brain
# T2 construct: other: Brain
# Description: as §1
# BChE = biological target: T3, BChE (Homo sapiens, UniProt P06276); test: BChE inhibition IC50 (RBC/plasma and brain); assay type: biochemical
# T3 construct: (−)-Phenserine (RBC/plasma); from tissue; host or cells: plasma (RBC/plasma rows); brain (Brain rows)
# β-APP [10] = test: CSF levels of β-APP in naive and forebrain-lesioned rats; assay type: in vivo, rat; details: for CSF levels of β-APP: vs untreated controls, FIG. 6
# Protocol: Lesions were induced with […] N-methyl-D-aspartic acid (50 nMol) (64-68).
# AChE [11] = biological target: T4, AChE (Rattus norvegicus, UniProt P37136); test: In vivo AChE inhibition in plasma after i.v. administration; design: species or system Fischer-344 rats; details: iv, 1 mg/kg i.v.
# T4 construct: Samples of plasma were removed to measure untreated levels of AChE activity; from tissue; host or cells: plasma of Fischer-344 rats
# T4 sequence (P37136 32-614): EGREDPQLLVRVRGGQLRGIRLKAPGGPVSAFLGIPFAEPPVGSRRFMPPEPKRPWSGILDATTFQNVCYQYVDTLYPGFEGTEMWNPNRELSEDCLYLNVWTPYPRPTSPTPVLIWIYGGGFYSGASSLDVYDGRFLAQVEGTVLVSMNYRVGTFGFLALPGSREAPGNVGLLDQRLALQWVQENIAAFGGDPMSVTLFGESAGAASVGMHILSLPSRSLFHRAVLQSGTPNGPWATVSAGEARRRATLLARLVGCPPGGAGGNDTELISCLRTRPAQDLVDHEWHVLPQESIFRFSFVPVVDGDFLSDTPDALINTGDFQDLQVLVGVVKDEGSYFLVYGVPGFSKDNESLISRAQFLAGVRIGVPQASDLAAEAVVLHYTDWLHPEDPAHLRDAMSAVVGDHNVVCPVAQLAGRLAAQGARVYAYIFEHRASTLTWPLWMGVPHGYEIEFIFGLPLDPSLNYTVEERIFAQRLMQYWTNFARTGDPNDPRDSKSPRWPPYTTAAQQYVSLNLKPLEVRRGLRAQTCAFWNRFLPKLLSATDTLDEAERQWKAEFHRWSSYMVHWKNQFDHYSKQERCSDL
# Protocol: In this experiment, three-month-old male Fischer-344 rats were anesthetized with halothane. PE 50 catheters, filled with heparinized isotonic saline, were tied into their right femoral artery and vein. Animals then were restrained with a plaster cast that enabled them to move their head and forequarters only and were allowed to recover from anesthesia in a temperature-controlled enclosure. Samples of plasma were removed to measure untreated levels of AChE activity. At 90 minutes after surgery, hexamethonium bromide (5 mg/kg) was administered intraperitoneally, followed by subcutaneous injection of atropine methyl bromide (4 mg/kg) 10 minutes later. […] Both were formulated in a manner consistent for intravenous bolus injection. Plasma samples were removed and immediately frozen at −70° C., just prior to intravenous administration of the inhibitors and at times between 2 minutes and 8 hours.
# β-APP [12] = test: Preclinical studies, β-APP levels; assay type: cell-based, rat; details: versus controls
# β-APP [13] = test: β-APP levels in adult rats after three weeks of daily administration; assay type: in vivo, rat; details: daily for three weeks, metrifonate 80 mg/kg, tacrine 3 mg/kg, data not shown
# Protocol: The levels of β-APP were measured by 22C11 (epitope APP 66-81).
# [14] = extracellular β-APP levels, read-out: IC50 for β-APP secretion
# [15] = intracellular β-APP levels, read-out: IC50 for intracellular β-APP
# [16] = human neuroblastoma cells, 2 μM, 10 μM and 50 μM (text: 50 μM), FIG. 3
# T3 sequence (P06276 29-602, species assumed): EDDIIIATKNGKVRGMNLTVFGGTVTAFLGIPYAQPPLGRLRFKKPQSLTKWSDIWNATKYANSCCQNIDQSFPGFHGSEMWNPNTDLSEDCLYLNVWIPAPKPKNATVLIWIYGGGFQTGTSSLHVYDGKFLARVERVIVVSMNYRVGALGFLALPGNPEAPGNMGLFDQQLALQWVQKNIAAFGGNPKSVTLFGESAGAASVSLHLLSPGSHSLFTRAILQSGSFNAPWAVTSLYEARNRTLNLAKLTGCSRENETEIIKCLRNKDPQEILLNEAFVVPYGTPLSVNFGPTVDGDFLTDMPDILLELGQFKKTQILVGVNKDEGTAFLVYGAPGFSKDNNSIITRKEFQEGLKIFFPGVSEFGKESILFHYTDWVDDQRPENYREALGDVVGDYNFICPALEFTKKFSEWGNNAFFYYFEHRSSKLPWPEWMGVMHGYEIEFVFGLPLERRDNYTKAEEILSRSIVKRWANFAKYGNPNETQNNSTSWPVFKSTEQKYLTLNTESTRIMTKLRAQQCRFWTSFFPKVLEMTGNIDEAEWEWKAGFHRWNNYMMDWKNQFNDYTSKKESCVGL
# T1 sequence (P22303 32-617 isoform P22303-2 limits assumed): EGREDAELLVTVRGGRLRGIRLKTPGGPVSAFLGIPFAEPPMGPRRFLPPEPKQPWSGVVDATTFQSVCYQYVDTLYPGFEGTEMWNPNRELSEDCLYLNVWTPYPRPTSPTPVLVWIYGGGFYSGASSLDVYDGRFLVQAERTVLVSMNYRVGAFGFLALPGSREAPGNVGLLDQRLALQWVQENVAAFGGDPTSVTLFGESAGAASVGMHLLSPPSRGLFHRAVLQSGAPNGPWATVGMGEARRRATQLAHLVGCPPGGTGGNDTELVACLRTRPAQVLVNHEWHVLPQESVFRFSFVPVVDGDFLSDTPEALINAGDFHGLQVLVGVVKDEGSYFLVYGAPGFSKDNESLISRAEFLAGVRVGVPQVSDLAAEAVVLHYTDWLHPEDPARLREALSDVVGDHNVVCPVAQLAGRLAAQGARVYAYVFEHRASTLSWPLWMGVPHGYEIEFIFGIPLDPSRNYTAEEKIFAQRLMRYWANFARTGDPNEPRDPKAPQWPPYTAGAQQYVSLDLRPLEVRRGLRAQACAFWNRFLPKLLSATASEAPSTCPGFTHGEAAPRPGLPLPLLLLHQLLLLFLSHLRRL
# T2 sequence (P22303 whole entry): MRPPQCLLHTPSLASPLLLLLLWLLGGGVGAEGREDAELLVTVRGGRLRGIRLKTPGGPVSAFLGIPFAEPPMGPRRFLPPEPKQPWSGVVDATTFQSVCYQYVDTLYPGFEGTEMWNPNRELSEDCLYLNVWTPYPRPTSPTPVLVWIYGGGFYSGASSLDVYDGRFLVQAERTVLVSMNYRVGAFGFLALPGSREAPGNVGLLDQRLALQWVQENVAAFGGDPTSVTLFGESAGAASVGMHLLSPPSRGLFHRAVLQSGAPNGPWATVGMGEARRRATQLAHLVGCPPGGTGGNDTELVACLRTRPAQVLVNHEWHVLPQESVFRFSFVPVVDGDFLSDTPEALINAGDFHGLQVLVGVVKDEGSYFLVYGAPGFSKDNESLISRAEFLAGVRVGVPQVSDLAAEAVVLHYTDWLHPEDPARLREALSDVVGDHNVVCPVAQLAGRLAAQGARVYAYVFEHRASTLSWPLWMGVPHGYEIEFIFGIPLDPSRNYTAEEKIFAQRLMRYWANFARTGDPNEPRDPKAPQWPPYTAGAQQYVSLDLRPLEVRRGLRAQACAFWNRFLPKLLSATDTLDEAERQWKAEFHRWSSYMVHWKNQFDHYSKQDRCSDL
smiles,measurement,setting,value
"CN1CC[C@]2(C)c3cc(OC(=O)Nc4ccccc4)ccc3N(C)C12 (single isomer, unassigned; (+)) [(+)-phenserine]",IC50,[1],> 25000 nM
same,"β-APP levels, intracellular and extracellular",β-APP [2],significantly lowered
same,"β-APP levels, intracellular and extracellular",β-APP [2]; listed as (+)-Phenserine,capable of reducing the β-APP and Aβ protein levels
same,IC50,β-APP [2]; [14],~670 nM
same,IC50,β-APP [2]; [15],~1100 nM
same,secreted levels of Aβ,Aβ [3],significantly lowered
same,secreted levels of Aβ,Aβ [3]; listed as (+)-Phenserine,capable of reducing the β-APP and Aβ protein levels
same,observed symptoms,[4]; 20 mg/kg i.p.,entirely without symptoms
same,Aβ levels,Aβ [5]; combined with (−)-phenserine,further reduced
same,production of β-APP,β-APP [6]; coadministered with donepezil,reduce the production of β-APP
same,production of β-APP,β-APP [6]; coadministered with eptastigmine,reduce the production of β-APP
same,production of β-APP,β-APP [6]; coadministered with galantamine,reduce the production of β-APP
same,production of β-APP,β-APP [6]; coadministered with huperzine A,reduce the production of β-APP
same,production of β-APP,β-APP [6]; coadministered with rivastigmine,reduce the production of β-APP
same,"efficacy test level (NPI, CGIC, ADAS-cog, MMSE, CANTAB, ADCS-ADL) vs First Level",[7]; 50 mg bid with 5 mg bid (−)-phenserine,maintain a level at least as great as the First Level
same,"efficacy test level (NPI, CGIC, ADAS-cog, MMSE, CANTAB, ADCS-ADL) vs First Level",[7]; 50 mg bid with 6-12 mg per day rivastigmine,maintain a level at least as great as the First Level
same,activity as an inhibitor of human acetylcholinesterase,[8],far less active
"COc1cc2c(cc1OC)C(=O)C(CC1CCN(Cc3ccccc3)CC1)C2 (centres unmarked) [donepezil, reference compound]",intracellular β-APP level,β-APP [2],decreased intracellular levels
same,intracellular β-APP level,β-APP [2]; listed as Donepezil,reduces intracellular β-APP
"CN1CC[C@@]2(C)c3cc(OC(=O)Nc4ccccc4)ccc3N(C)C12 (single isomer, unassigned; (-)) [(−)-phenserine]",IC50,AChE [9],36 ± 3 nM
same,IC50,BChE; Brain,2500 ± 1100 nM
same,IC50,BChE; RBC/plasma,1560 ± 270 nM
same,"β-APP levels, intracellular and extracellular",β-APP [2],significantly lowered; also recorded: reduces β-APP and Aβ levels in a concentration-dependent manner; also recorded: decreased the β-APP levels
same,IC50,β-APP [2]; [14],~670 nM
same,IC50,"β-APP [2]; intracellular β-APP levels, read-out: IC50 for inhibition of β-APP, intracellular",~1100 nM
same,IC50,β-APP [2]; [15],~1100 nM
same,secreted levels of Aβ,Aβ [3],significantly lowered; also recorded: reduces β-APP and Aβ levels in a concentration-dependent manner; also recorded: substantially reduced from that of the controls especially at 16 hours
same,"extracellular β-APP in the CSF, dose dependence of the decrease","β-APP [10]; adult rats, up to very high doses",reaches a plateau that is not further decreased even at very high doses
same,CSF levels of β-APP,"β-APP [10]; naive rats, 2.5 mg/kg, 2.5 mg/kg",lowered β-APP levels; also recorded: reduce β-APP levels
same,CSF levels of β-APP,β-APP [10]; rats with cholinergic forebrain (nucleus basalis of Meynert) lesions,lowered β-APP levels
same,inhibition at 1 mg/kg,"AChE [11]; at 5 minutes, read-out: maximum AChE inhibition",73.5%
same,inhibition at 1 mg/kg,"AChE [11]; at 8 hours, read-out: AChE inhibition",43%
same,duration of fine tremor,[4]; 5 mg/kg i.p.,about 1 hour
same,observed symptoms,[4]; 5 mg/kg i.p.,a fine tremor was observed
same,observed symptoms,[4]; 7.5 mg/kg i.p.,"Tremor, together with symptoms of peripheral over-stimulation (specifically, lacrimation and salivation)"
same,observed symptoms,[4]; 20 mg/kg i.p.,incapacitated by severe tremor and peripheral side effects
same,animals killed when moribund,"[4]; 20 mg/kg i.p., of 5 treated animals",2
same,reduction of Aβ levels in nerve cells,Aβ [5]; after 8 hours,14%
same,reduction of Aβ levels in nerve cells,Aβ [5]; after 16 hours,31%
same,levels of β-APP,β-APP [12],similarly reduced
"CCN(C)C(=O)Oc1cccc([C@H](C)N(C)C)c1 [rivastigmine, reference compound]",secreted β-APP,β-APP [2]; [16],elevated secretion of β-APP; also recorded: elevates the levels of secreted β-APP
same,Aβ peptide levels,Aβ [3]; [16],No statistically significant change; also recorded: without a statistically significant change
COP(=O)(OC)C(O)C(Cl)(Cl)Cl (centres unmarked) [Metrifonate],secreted β-APP levels,β-APP [13],did not alter
Nc1c2c(nc3ccccc13)CCCC2 [Tacrine],secreted β-APP levels,β-APP [13],did not alter
